From article PMC9381947 (Antiviral Research, 2022)

Columns and labels:
[1] = system: NSP13 E375A; format: biochemical, SARS-CoV-2
[2] = system: NSP13 E319A; format: biochemical, SARS-CoV-2

## O=C1O[C@@H]2[C@@H](OC(=O)c3cc(O)c(O)c(O)c3-c3c1cc(O)c(O)c3O)[C@H](O)O[C@@H]1COC(=O)c3cc(O)c(O)c(O)c3-c3c(O)c(O)c4oc(=O)c5c(c(O)c(O)c6oc(=O)c3c4c65)-c3c(cc(O)c(O)c3O)C(=O)O[C@@H]21 [Punicalagin, 2,3-hexahydroxydiphenoyl-gallagyl-D-glucose]
[1]
  reduction of the inhibitory potency compared to wild type: about 2 fold
[2]
  reduction of the inhibitory potency compared to wild type: about 2 fold
